One test has as its target T1, RAD51 (Homo sapiens, UniProt Q06609).
T1 construct: made in house
T1 sequence (Q06609 1-339): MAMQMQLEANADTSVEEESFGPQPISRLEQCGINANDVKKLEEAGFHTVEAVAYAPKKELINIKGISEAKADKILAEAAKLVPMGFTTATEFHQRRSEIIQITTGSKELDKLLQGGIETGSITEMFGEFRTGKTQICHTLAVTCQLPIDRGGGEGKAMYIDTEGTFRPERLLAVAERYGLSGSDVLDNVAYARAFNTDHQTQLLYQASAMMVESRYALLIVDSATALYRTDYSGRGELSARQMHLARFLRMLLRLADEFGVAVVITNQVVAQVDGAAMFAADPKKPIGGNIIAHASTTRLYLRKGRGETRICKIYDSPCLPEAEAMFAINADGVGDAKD
The test can be described thus: D-loop assay for RAD51. Format: biochemical. To be noted: for inhibitory effect on D-loop formation by RAD51, in words: B02 derivatives 50 μM; for pIC50: RAD51 1 μM, ssDNA 3 μM, dsDNA 50 μM, compound added after filament formation. On the procedure: When indicated, chemical compounds in question were added in specified concentrations and incubation was continued for 30 min at 37° C. D-loop formation was initiated by addition of supercoiled pUC19 dsDNA (50 μM, nt) and continued for 15 min. Reactions were stopped by addition of SDS to 1% (w/v) and proteinase K to 880 μg ml^−1 followed by incubation for 15 min at 37° C. […] The yield of joint molecules was expressed as a percentage of the total plasmid DNA.
The reaction was deproteinized and analyzed as described above.
(§1) IC50 values were calculated using GraphPad Prism V5.0 software and the sigmoidal dose-response function. The data were obtained from three independent repeats of experiments.

A further test concerns the target T2, RecA (Escherichia coli, UniProt P0A7G6).
T2 construct: purchased USB Inc. (Cleveland, Ohio)
In words: biochemical. Set-up: species or system E. coli. The conditions noted are these: for pIC50: IC50 (RecA), RecA 1 μM, ssDNA 3 μM, dsDNA 50 μM; for inhibition of RecA DNA strand exchange, in words: up to 100 μM. On the procedure:
(Mazin et al., 2000, EMBO J. 19:1148-56). When indicated, chemical compounds in specified concentrations were added and incubation was continued for 30 min at 37° C. D-loop formation was initiated by addition of supercoiled pUC19 dsDNA (50 μM, nt) and carried out for 3 min at 37° C. The DNA products were deproteinized and analyzed as described above for the Rad51-promoted reaction.
as §1

Another test concerns MEF cells. The test can be described thus: Clonogenic survival assay, MEF. It counts as cell-based, mouse. To be noted: AZD2281 1 μM versus MMS only. On the procedure:
Briefly, MEF cells were trypsinized and the appropriate number of cells was replated on 10 cm tissue culture dishes. […] Cells were fixed and stained using staining solution (0.05% crystal violet, 50% methanol in PBS); colonies were counted using an AlphaImager 3400 (Alpha Innotech Inc.). The percent of survival was determined as described (Hall & Giccia, 2005, “Radiobiology for the Radiologist”, 6th Ed., Philadelphia, Pa.: Lippincott Williams & Wilkins, pp. 30-45). The percent of survival obtained from untreated cells was normalized to 100% survival.

Each structure is given as a SMILES string. pIC50: −log10 of the molar value. Some results are limits rather than exact numbers.

Results on 6 molecules are retold here after patent US9750742B2, “Small molecular inhibitors of RAD51 recombinase and methods thereof” (Drexel University, priority 2011, dated 2017).

T2 sequence (P0A7G6 whole entry): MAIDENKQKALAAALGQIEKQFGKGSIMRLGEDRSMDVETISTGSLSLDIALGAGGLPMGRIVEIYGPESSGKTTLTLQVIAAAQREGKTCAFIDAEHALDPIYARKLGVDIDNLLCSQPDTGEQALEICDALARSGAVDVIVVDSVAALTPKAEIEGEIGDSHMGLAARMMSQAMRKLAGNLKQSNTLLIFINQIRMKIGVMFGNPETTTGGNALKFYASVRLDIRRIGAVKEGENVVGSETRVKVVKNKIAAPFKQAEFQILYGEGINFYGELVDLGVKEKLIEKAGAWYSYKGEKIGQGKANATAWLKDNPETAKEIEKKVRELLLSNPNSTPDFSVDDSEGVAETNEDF

By pIC50 is commonly meant −log10 of the IC50, conventionally taken in molar units. On to `Cc1cccc(-n2c(/C=C/c3cccnc3)nc3ccccc3c2=O)c1` [Compound C3b, (E)-2-(2-(pyridin-3-yl)vinyl)-3-(m-tolyl)quinazolin-4(3H)-one], for which, at RAD51, the “inhibitory effect on D-loop formation by RAD51, in words” value (“inhibitory effect on D-loop formation” for short) was “retain the inhibitory effect” and the negative logarithm of the IC50 (pIC50) is 4.56. Also, at RecA, the pIC50 was less than 4.00 and the “inhibition of RecA DNA strand exchange, in words” value is listed as “do not inhibit”.

Consider `O=c1c2ccccc2nc(C=Cc2cccnc2)n1-c1ccccc1` [Compound C3d], for which the “inhibitory effect on D-loop formation” value against RAD51 was “eliminates the inhibition”.

`Cn1c(C=Cc2cccnc2)nc2ccccc2c1=O` [Compound C3e]: the “inhibitory effect on D-loop formation” value on RAD51 is “eliminates the inhibition”.

Turning to `Cc1ccc(-n2c(C=Cc3cccnc3)nc3ccccc3c2=O)cc1` [Compound C3c], the “inhibitory effect on D-loop formation” value against RAD51 is listed as “eliminates the inhibition”.

As to `O=C(c1cc(Cc2n[nH]c(=O)c3ccccc23)ccc1F)N1CCN(C(=O)C2CC2)CC1` [AZD2281, 4-[(3-[(4-cyclopropylcarbonyl)piperazin-4-yl]carbonyl)-4-fluorophenyl]methyl(2H)phthalazin-1-one, reference compound], the “sensitivity to MMS” value with MEF cells is listed as “more sensitive”.

Turning to `CCn1c(/C=C/c2cccnc2)nc2ccccc2c1=O` [Compound C3a, (E)-3-ethyl-2-(2-(pyridin-3-yl)vinyl)quinazolin-4(3H)-one], on RAD51, the “inhibitory effect on D-loop formation” value is “retain the inhibitory effect” and the negative-log IC50 (pIC50) is 4.82. Further, at RecA, the pIC50 was less than 4.00 and the “inhibition of RecA DNA strand exchange, in words” value is given as “do not inhibit”.
